For the assay, the system named is CEM cells HIV-1 protection, formazan growth assay. The assay can be described thus: NCI AIDS Antiviral Assay. To be noted: for IC50: measured here: growth of uninfected CEM cells. An outline of the steps: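 CEM (human) cells, HIV-1 infected vs uninfected, 5-point dosing, formazan growth read-out. Retest threshold 50% protection.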

Active and inactive are the calls of the source.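 Rule for the calls: active = compounds giving half or more protection of infected cells from virus-caused growth loss, again on retest; inactive = the rest.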 Where a SMILES comes first, the peptide text is derived from it. The star is where a group is joined. Boc = CC(C)(C)OC(=O)*; OBn = c1ccc(CO*)cc1 Bounds are passed on as bounds.

As to `N#CC1(C#N)NC(c2cccs2)C(C#N)(C#N)NC1c1cccs1` (stereo unspecified), the EC50 was over 200 µM and the IC50 is 26.9 µM. Turning to `CCCCc1ccc(C(=O)O)nc1`, the outcome was inactive. On to `O=C(/C=C/c1ccc(Br)cc1)c1ccc(NCc2nc3ccccc3[nH]2)cc1`, for which the EC50 is over 16.6 µM and the concentration for half-maximal inhibition (IC50) came out at 11.5 µM. Turning to `COc1cc(C(=O)CC(O)(C(F)(F)F)C(F)(F)F)cc(OC)c1OC`, the EC50 is over 200 µM and the IC50 is over 200 µM. For `OC1NC2Nc3ccccc3NC2NC1O` (stereo unspecified), the EC50 was over 200 µM and the half-maximal inhibitory concentration (IC50) is over 200 µM. Consider `CCOP(=S)(OCC)Oc1cc(C)nc(C(C)C)n1`, for which the EC50 was over 309 µM and the IC50 is over 309 µM. Regarding `N#CC(C(=O)/C(=N/N)C(C#N)c1ccccc1)c1ccccc1` (stereo unspecified), the EC50 is over 309 µM and the IC50 was over 309 µM. With `CCCCCCNC(=O)/C(=C/c1ccc(OC)cc1)NC(=O)c1ccccc1`, the EC50 was over 200 µM and the IC50 came to 102 µM. For the compound `N#CC1=C(N)CCC(C#N)(c2ccccc2)C1` (stereo unspecified), the EC50 was over 200 µM and the IC50 was over 200 µM. For `COc1ccc(-c2cc(C(=O)O)c3cc4ccccc4cc3n2)cc1Br`, the result was inactive.

Take `CC(C)O[C@H]1N(C2CC(N=[N+]=[N-])C(CO)O2)C(=O)NC(=O)[C@]1(C)Br` (stereo partly specified): the concentration for a half-maximal effect (EC50) was 2.88 µM and the IC50 is over 200 µM.

Regarding `COc1c(O)cc2oc(-c3ccc(O)c(O)c3)cc(=O)c2c1O`, the EC50 is over 38 µM and the 50% inhibitory concentration (IC50) came out at 22.9 µM. On the same counts, the results for `COc1ccc2c(c1)c1cc(OC)ccc1n2CCCCOc1ccc(-c2c3ccccc3c(-c3ccc(OCCCCn4c5ccc(OC)cc5c5cc(OC)ccc54)cc3)c3ccccc23)cc1` are over 1.55 µM and over 1.55 µM.

On to `COC1=Nc2ccccc2S(=O)(=O)C=C1`, for which the EC50 was over 398 µM and the IC50 was determined as 0.813 µM.

On to `NC(N)=NS(=O)(=O)c1ccc(NC(=O)c2cccc3c(NNc4ccc(S(N)(=O)=O)cc4)c4ccccc4nc23)cc1`, for which the EC50 is over 200 µM and the IC50 was 28.2 µM. On the same counts, the results for `Cc1cc(NS(=O)(=O)c2ccc(Nc3c4ccccc4nc4c(C(=O)NC=O)cccc34)cc2)no1` are over 200 µM and 12.3 µM. On the same counts, the results for `CSc1nc2c(c(N(C)C)n1)C=Nn1c(nc3ccccc31)S2` are 9.77 µM and 97.7 µM.

With `CC1=N/C(=C\c2ccc(F)cc2)C(=O)O1`, the EC50 is over 25.1 µM and the IC50 is over 25.1 µM. `CC(=O)Nc1ccc(C(=O)OCC2OC(n3cc(C)c(=O)[nH]c3=O)CC2N=[N+]=[N-])cc1` (stereo unspecified): the EC50 is 0.148 µM and the IC50 amounted to 38.9 µM. As for `CCOC(=O)C1(Cc2ccccc2)Cc2ccccc2C1=O` (stereo unspecified), the EC50 is over 200 µM and the 50% inhibitory concentration (IC50) came to 37.2 µM. For the compound `O=C(NCc1ccccc1)OCCO`, the outcome was inactive. As to `CCOC(=O)CC[C@H](NC(=O)c1nc[nH]c1[N+](=O)[O-])C(=O)OCC`, the EC50 is over 200 µM and the IC50 is over 200 µM.

As to `N#CC1CC2(C1)OCCS2` (stereo unspecified), the outcome was inactive. Turning to `CSc1nc2nccnc2c(=O)[nH]1`, the EC50 was over 1290 µM and the IC50 was over 1290 µM.

`CCOC(=O)c1ccc(CSc2ccc(N)cc2)c([N+](=O)[O-])c1`: the EC50 is over 40.7 µM and the IC50 was over 40.7 µM. Take `O=C(NNC(=S)Nc1ccccc1)c1csc(NC(=S)NC2CCCCC2)n1`: the EC50 is 6.92 µM and the IC50 came out at 7.41 µM.

In the case of `CC[C@@]1(C(=O)OC)C=CCN2C(=O)OC(C)(C)C21` (stereo partly specified), the result was inactive. Take `OCc1cc2c(ccc3sc4ccc5sc6ccc7ncccc7c6c5c4c32)s1`: the EC50 is over 200 µM and the IC50 came to 11.2 µM. For `CN1C(N)=NC(=O)/C1=C/c1ccccc1`, the EC50 was over 200 µM and the IC50 was 115 µM. On the same counts, the results for `Cc1nc(SCC(N)=O)c2sc(=S)n(-c3ccccc3)c2n1` are over 200 µM and over 200 µM. For `CS(=O)(=O)Nc1c(-c2ccccc2)oc2ccccc2c1=O` the same measures were over 200 µM and over 200 µM. As to `COc1cc2[nH]c3c(c2cc1OC)CCN[C@@]31CC[C@@]2(CC3c4c(cc(OC)c(O)c42)CCN3C)C[C@@H]1OC` (stereo partly specified), the outcome was inactive. `CCOC(=O)COc1ccc(S(=O)(=O)c2ccc(OCC(=O)OCC)cc2)cc1`: the EC50 is over 200 µM and the concentration for half-maximal inhibition (IC50) was over 200 µM. Consider `NC(CSS(=O)(=O)O)=NCc1ccccc1`, for which the EC50 is over 200 µM and the half-maximal inhibitory concentration (IC50) was over 200 µM.

As to `C=CCNC(=O)ON1C(=O)CCC1=O`, the EC50 was over 1260 µM and the IC50 is over 1260 µM. Take `CC(C)=CCNc1ncnc2c1ncn2CCC(=O)OC(C)(C)C`: the EC50 was over 200 µM and the IC50 was 117 µM. On to `O=S(=O)(O)c1ccc2cc(N=Nc3cc(S(=O)(=O)O)c4cccnc4c3O)ccc2c1`, for which the 50% effective concentration (EC50) is 24 µM and the IC50 was over 100 µM. On the same counts, the results for `COC(=O)/C(=N\Nc1nnc(C)n1N)C(C#N)c1ccccc1` (stereo unspecified) are over 575 µM and 93.3 µM. On the same counts, the results for `O=C(Nc1ccc(I)cc1)c1ccccc1[Se][Se]c1ccccc1C(=O)Nc1ccc(I)cc1` are over 4.68 µM and over 4.68 µM. As to `COc1cc(OCc2ccc3nc(OC)c(OC)nc3c2)cc(OC)c1OC`, the EC50 was over 200 µM and the IC50 is over 200 µM. With `CC1(C)COC(c2cccc3c2C2C=CC3O2)=N1` (stereo unspecified), the EC50 is over 200 µM and the IC50 was over 200 µM. For `NC(=O)C(=O)N/N=C/c1ccc([N+](=O)[O-])o1`, the EC50 was over 200 µM and the IC50 came out at 8.32 µM. On the same counts, the results for `COc1cc(/C=C2\C(=O)N(c3ccccc3)C(c3ccccc3)S2(=O)=O)cc(OC)c1OC` (stereo unspecified) are over 20 µM and 2.88 µM.

In the case of `CSc1ccc(C(=C=C=C(c2ccc(SC)s2)c2ccc(SC)s2)c2ccc(SC)s2)s1`, the EC50 is over 200 µM and the IC50 is over 200 µM. For `CC1C2CC3(c4ccccc4)CC(/C2=N\O)/C(=N/O)C1[C@@]3(C)O` (stereo partly specified), the EC50 is over 200 µM and the IC50 is over 200 µM.

As for `COc1cc2c(cc1OCCCCN1C(=O)c3cccc4cccc(c34)C1=O)N=C[C@@H]1CCCN1C2=O`, the EC50 is over 200 µM and the 50% inhibitory concentration (IC50) came out at 3.47 µM. For `Cc1cc2cc3c(C)cc(=O)oc3c(C)c2o1` the same measures were over 56.2 µM and over 56.2 µM. For `CN(C)c1ccc(/C=C(/C(=O)c2ccccc2)c2ccccc2)cc1` the same measures were over 15.8 µM and over 15.8 µM. With `N#CC1Nc2ccccc2[C@@H](O)C1O` (stereo partly specified), the EC50 is over 1320 µM and the concentration for half-maximal inhibition (IC50) came out at 240 µM. Consider `Nc1[nH]c(=S)c2c(N)n[nH]c2c1C(=O)Nc1ccccc1`, for which the EC50 is over 200 µM and the half-maximal inhibitory concentration (IC50) was determined as 91.2 µM. With `Cc1ccc(C(=O)OC(C)C)cc1N=NN(C)C`, the EC50 was over 55 µM and the IC50 was over 55 µM.

Regarding `O=C(O)CC(O)(c1ccccc1C(=O)O)c1cccc2ccccc12` (stereo unspecified), the result was inactive. Regarding `O=C1OC(c2ccccc2)(c2ccccc2)c2sccc21`, the EC50 was over 24.5 µM and the IC50 was over 24.5 µM. Consider `CC(=O)On1c(-c2ccccc2)nc2ccccc2c1=S`, for which the EC50 is over 200 µM and the half-maximal inhibitory concentration (IC50) amounted to 1.35 µM. Take `Clc1ccc(C2=NON(c3ncccn3)C3N=CC=CN23)cc1` (stereo unspecified): the EC50 was over 15.8 µM and the 50% inhibitory concentration (IC50) was over 15.8 µM. As to `Cc1ccc(C(=O)C2C=C(c3ccc(C)cc3)SC3C=CCC32)cc1` (stereo unspecified), the EC50 is over 200 µM and the IC50 worked out at 14.8 µM. Turning to `C/C(=N\NS(=O)(=O)c1ccc(C)cc1)C(CN1CCOCC1)C(c1ccccc1)c1c(O)c2ccccc2oc1=O` (stereo unspecified), the EC50 is over 42.7 µM and the IC50 was 19.1 µM. Regarding `COc1ccc(OC)c(C(=O)/C=C\C(=O)O)c1`, the EC50 was over 219 µM and the 50% inhibitory concentration (IC50) stood at 24.5 µM. As to `O=C1CCC(N2C(=O)C3C4c5ccccc5C(c5ccccc54)C3C2=O)C(=O)N1` (stereo unspecified), the EC50 is over 200 µM and the IC50 was over 200 µM.

Consider `O=S(Cc1ccccc1)/C(=C/NC(=S)Nc1cc(Cl)ccc1Cl)c1ccccc1` (stereo unspecified), for which the EC50 was over 200 µM and the IC50 is over 200 µM. Consider `CC(C)N(C(=O)C12C3C4C1C1C4(C#N)C3C12C#N)C(C)C` (stereo unspecified), for which the EC50 is over 129 µM and the IC50 was over 129 µM. Regarding `COC1/C=C/OC2(C)Oc3c(C)c(O)c4c(O)c(c(CNCc5ccccc5)c(O)c4c3C2=O)NC(=O)/C(C)=C\C=C\C(C)C(O)C(C)C(O)C(C)C(OC(C)=O)C1C` (stereo unspecified), the EC50 is over 200 µM and the IC50 amounted to 1.51 µM. For `CCOC(=O)CC(C)CCO` (stereo unspecified) the same measures were over 1550 µM and over 1550 µM. For `CN(C)Cc1cc(CN(C)C)c(O)c(CN(C)C)c1` the same measures were over 200 µM and over 200 µM. For the compound `CC(C)CC(=O)[O-].N.N.N.N.N.[Co+3].[O-][Cl+3]([O-])([O-])[O-]`, the outcome was inactive. As to `O=c1c(-c2ccc(O)cc2)coc2c(C3OC(CO)C(O)C(O)C3O)c(O)ccc12` (stereo unspecified), the EC50 is over 200 µM and the half-maximal inhibitory concentration (IC50) is over 200 µM.

In the case of `Cc1cc(Cl)ccc1NC(=O)C(=O)Cc1nc2ccc(C(=O)c3ccccc3)cc2[nH]c1=O`, the EC50 was over 77.6 µM and the IC50 is over 77.6 µM.

Take `CC(NC(=O)C(Cc1ccccc1)NC(=O)C(Cc1ccccc1)NC(=O)OC(C)(C)C)C(=O)OCc1ccccc1` (stereo not drawn) (Boc-Phe-Phe-Ala-OBn; configuration not given here): the EC50 was over 200 µM and the 50% inhibitory concentration (IC50) was 60.3 µM. On the same counts, the results for `O=[N+]([O-])c1cccc[c]1[Sb](=[O])([OH])[c]1ccccc1[N+](=O)[O-]` are over 200 µM and 25.1 µM. For `CC(=O)n1nc(C)c(-c2onc3ccc(Cl)cc23)c1C` the same measures were 40.7 µM and 44.7 µM.

For the compound `Cn1c2c(c3ccccc31)CC(=O)N1CCCCC1C21OCCO1` (stereo unspecified), the EC50 was over 100 µM and the IC50 was over 100 µM.

Take `COC(=O)CNC(=O)/C=C/[C@H](O[Si](C)(C)C(C)(C)C)[C@H](/C=C/C(=O)NCC(=O)OC)O[Si](C)(C)C(C)(C)C`: the EC50 was over 25.1 µM and the half-inhibitory concentration (IC50) was over 25.1 µM.

These data come from PubChem BioAssay AID179 (DTP/NCI, 2004).
